Measured values from patent US20080176923A1, “Proline Derivatives Used as Pharmaceutical Active Ingredients for the Treatment of Tumors” (priority 2003, published 2008).
Converted amounts (≈) assume the structure as drawn. Like-named read-outs stand apart in the source and are kept apart here.

What was measured:
[1] = tested on: Colo205 colon cancer cell line; experiment: tumor cell proliferation test (EZ4U tetrazolium), Colo205; assay type: cell-based; details: for inhibition at 200 µg/mL / inhibition at 400 µg/mL / IC50: Homo sapiens
Description: (§1) The compounds of the invention were tested using the pancreas tumor cell lines MIYPaCa2 and BxPC3, the breast cancer cell lines MDA-MB-435 and BT20, as well as the colon cancer cell lines Colo205 and HT29. The cells were placed in culture medium (RPMI-1640 with 10% fetal calf serum and 4 mM glutamine) in 96-well microtiter plates to make 10,000 cells per well. The inventive components to be tested were diluted in microtiter plates according to the well-known procedure and incubated for 4 days under cell culture conditions (37° C., 5% CO2).
(§2) Following incubation, the proliferation was tested using a tetrazolium-based EZ4U kit from Biomedica (Vienna, Austria). The optical density (OD) of each well was determined by means of an ELISA Reader, and the control medium obtained was set to 100% (OD490 nm=0.5 to 1.5). The values in Table 1 are given in %, showing the inhibition of cellular proliferation, the concentration being 400 μg/ml (higher value) and 200 μg/ml (lower value).
(§3) In further tests, substances were dissolved in water, and their effect on the colon adenocarcinoma cell line Colo205 and pancreas adenocarcinoma cell line BxPC3 as targets was tested. The results obtained, in IC50 concentrations in μg/ml, are illustrated in Table 2.
(§4) A proliferation test—as described above—with an initial dilution of 400 μg/ml was carried out, either alone or in combination with 400, 200 or 100 μg of CHP. The cell lines used are illustrated in Table 3. […] Frequently, the proliferation is increased, or the inhibition achieved with specific substances is lower when using combined agents. The effect of CHP alone is shown on the left in the table, below each specified cell line, for the highest concentration of CHP (400 μg/ml).
(§5) Furthermore, (R)-(+)-α,α-diphenyl-2-pyrrolidinemethanol and (S)-(−)-α,α-diphenyl-2-pyrrolidinemethanol were tested. […] The results are given as IC50 (μg/ml).

[2] = tested on: BxPC3 pancreas tumor cell line; experiment: tumor cell proliferation test (EZ4U tetrazolium), BxPC3; assay type: cell-based; details: for inhibition at 200 µg/mL / inhibition at 400 µg/mL / IC50: Homo sapiens; for inhibition at 200 µg/mL / inhibition at 400 µg/mL: BXPC-3, 96 h, read-out: inhibition of cellular proliferation
Description: as §1, §2, §3, §5

[3] = tested on: MIA-PaCa2 pancreas tumor cell line; experiment: tumor cell proliferation test (EZ4U tetrazolium), MIA-PaCa2; assay type: cell-based; details: Homo sapiens; for inhibition at 200 µg/mL / inhibition at 400 µg/mL: MIA PaCa-2, 96 h, read-out: inhibition of cellular proliferation; for IC50: MIA PaCa-2
Description: as §1, §2, §5

[4] = tested on: MDA-MB435 breast cancer cell line; experiment: tumor cell proliferation test (EZ4U tetrazolium), MDA-MB435; assay type: cell-based; details: Homo sapiens, MDA-MB-435, 96 h, 4 days, read-out: inhibition of cellular proliferation; for inhibition at 200 µg/mL: MDA-MB435, 200 μg/ml; for inhibition at 400 µg/mL: MDA-MB435, 400 μg/ml
Description: as §1, §2

[5] = tested on: BT20 breast cancer cell line; experiment: tumor cell proliferation test (EZ4U tetrazolium), BT20; assay type: cell-based; details: Homo sapiens, BT-20, 96 h, 4 days, read-out: inhibition of cellular proliferation; for inhibition at 200 µg/mL: BT20, 200 μg/ml; for inhibition at 400 µg/mL: BT20, 400 μg/ml
Description: as §1, §2

[6] = tested on: HT29 colon cancer cell line; experiment: tumor cell proliferation test (EZ4U tetrazolium), HT29; assay type: cell-based; details: Homo sapiens, HT-29, 96 h, 4 days, read-out: inhibition of cellular proliferation; for inhibition at 200 µg/mL: HT29, 200 μg/ml; for inhibition at 400 µg/mL: HT29, 400 μg/ml
Description: as §1, §2

[7] = tested on: T47D breast cancer cell line; experiment: tumor cell proliferation test, T47D; assay type: cell-based; details: for inhibition at 400 µg/mL / IC50: Homo sapiens
Description: as §1, §2, §4, §5

[8] = tested on: SW620 colon cancer cell line; experiment: tumor cell proliferation test, SW620; assay type: cell-based; details: for inhibition at 400 µg/mL: Homo sapiens
Description: as §1, §2, §4

[9] = tested on: all 6 cell lines (MIA-PaCa2, Colo205, BxPC3, MDA-MB435, BT20, HT29); experiment: tumor cell proliferation test, mean value for all 6 cell lines; assay type: cell-based; details: read-out: inhibition, mean value±SEM for all 6 cell lines
Description: as §1, §2

[10] = repeated oral administration to rats over 28 days, LC/MS of serum and urine; assay type: in vivo; details: repeated oral administration over 28 days
Description: cis-4-Hydroxy-L-proline was repeatedly administered orally to rats over a period of 28 days. cis-4-Hydroxy-L-proline was analyzed in serum and urine samples using the LC/MS technique.

Pana -1 pancreas cancer = experiment: tumor cell proliferation test, Pana -1; assay type: cell-based
Description: as §1, §2, §5

[11] = COLO 205, 96 h, read-out: inhibition of cellular proliferation
[12] = COLO 205, 96 h, Colo205, 200 μg/ml, 4 days, read-out: inhibition of cellular proliferation
[13] = COLO 205, 96 h, Colo205, 400 μg/ml, 4 days, read-out: inhibition of cellular proliferation

In the case of “4-hydroxy-1,1-dimethylproline isobutyl ester iodide [Substance A2-01]”, the “IC50 Colo205” value ([1]; substances dissolved in water) is reported as over 400 µg/mL and the “IC50 BxPC3” value ([2]; substances dissolved in water) is reported as 50 µg/mL.
Work on `O=C(O)[C@@H]1C[C@H](O)CN1` [CHP, cis-4-hydroxy-L-proline, reference compound] yielded an inhibition at 200 µg/mL [3] of 34.5%, an inhibition at 400 µg/mL [3] of 51.3% and an inhibition at 200 µg/mL [1, 11] of 60%. For the same compound, the inhibition at 400 µg/mL [1, 11] was 78.2%, the IC50 ([1]; COLO 205, read-out: IC50 Colo205) was 90 µg/mL and the inhibition at 400 µg/mL ([1]; COLO 205, read-out: effect of CHP alone (% inhibition of proliferation, minus sign)) was 46%. The inhibition at 200 µg/mL [2] was 27.8%, the inhibition at 400 µg/mL [2] was 44.5% and the IC50 ([2]; BXPC-3, read-out: IC50 BxPC3) was 400 µg/mL (≈ 3050 µM). For the same compound, the inhibition at 200 µg/mL [4] was 19.9%, the inhibition at 400 µg/mL [4] was 39.2% and the inhibition at 200 µg/mL [5] was 6.5%. It also gave an inhibition at 400 µg/mL [5] of 10.6%, an inhibition at 200 µg/mL [6] of 1.7% and an inhibition at 400 µg/mL [6] of 15.7%. It also gave an inhibition at 400 µg/mL ([7]; read-out: effect of CHP alone (% inhibition of proliferation, minus sign)) of 17.4%, an inhibition at 400 µg/mL ([8]; SW-620, CHP 400 μg/ml alone, read-out: effect of CHP alone (% inhibition of proliferation, minus sign)) of 14% and an inhibition at 400 µg/mL [9] of 40 ± 10.1%. For the same compound, the “level of cis-4-hydroxy-L-proline in serum or urine” value [10] was “rapidly dropped” and the “isomers and metabolites in the investigated samples (biotransformation)” value ([10]; serum and urine) was “detection of isomers and metabolites”.
With `OC(c1ccccc1)(c1ccccc1)[C@H]1CCCN1` [Substance 231.01, (R)-(+)-α,α-diphenyl-2-pyrrolidinemethanol] the IC50 [3] was 50 µg/mL (≈ 197 µM), the IC50 ([1]; COLO 205) was 45 µg/mL and the IC50 ([2]; BXPC-3) was 60 µg/mL (≈ 237 µM). The IC50 [7] was 130 µg/mL and the IC50 (Pana -1 pancreas cancer) was 80 µg/mL (≈ 316 µM).
`OC(c1ccccc1)(c1ccccc1)[C@@H]1CCCN1` [Substance 231.02, (S)-(−)-α,α-diphenyl-2-pyrrolidinemethanol] showed an IC50 [3] of 50 µg/mL (≈ 197 µM), an IC50 ([1]; COLO 205) of 45 µg/mL and an IC50 ([2]; BXPC-3) of 50 µg/mL (≈ 197 µM). For the same compound, the IC50 [7] was 190 µg/mL and the IC50 (Pana -1 pancreas cancer) was 55 µg/mL (≈ 217 µM).
In the case of `CN1CC(O)C[C@H]1C(=O)O` (stereo partly drawn) [Substance A0.21, 4-hydroxy-1-methylproline], the inhibition at 200 µg/mL ([3]; MIA-PaCa2, 200 μg/ml, 4 days) is reported as 21.1%, the inhibition at 400 µg/mL ([3]; MIA-PaCa2, 400 μg/ml, 4 days) is reported as 22.8% and the “% inhibition of proliferation (minus signs)” value (from here on “% inhibition … (minus signs)”) ([1]; Colo205, A0.21 100 alone (Con)) is reported as −3.5%. The “% inhibition … (minus signs)” value ([1]; Colo205, A0.21 200 alone (Con)) was −4.0%, the inhibition at 200 µg/mL [1, 12] was 21.1% and the inhibition at 400 µg/mL [1, 13] was 16.3%. It also gave an inhibition at 400 µg/mL ([1]; COLO 205, Colo205, A0.21 400 μg/ml alone (Con), read-out: % inhibition of proliferation (minus signs)) of 8.2%, an inhibition at 200 µg/mL ([2]; BxPC3, 200 μg/ml, 4 days) of 21.9% and an inhibition at 400 µg/mL ([2]; BxPC3, 400 μg/ml, 4 days) of 16.2%. The inhibition at 200 µg/mL [4] was 26.9%, the inhibition at 400 µg/mL [4] was 23.2% and the inhibition at 200 µg/mL [5] was 18.3%. The inhibition at 400 µg/mL [5] was 14.9%, the inhibition at 200 µg/mL [6] was 4.8% and the inhibition at 400 µg/mL [6] was 4.7%. The “% inhibition … (minus signs)” value ([7]; A0.21 100 alone (Con)) was −1.8%, the “% inhibition … (minus signs)” value ([7]; A0.21 200 alone (Con)) was −1.2% and the inhibition at 400 µg/mL ([7]; A0.21 400 μg/ml alone (Con), read-out: % inhibition of proliferation (minus signs)) was 0.4%. For the same compound, the “% inhibition … (minus signs)” value ([8]; A0.21 100 alone (Con)) was −5.8%, the “% inhibition … (minus signs)” value ([8]; A0.21 200 alone (Con)) was −6.3% and the inhibition at 400 µg/mL ([8]; SW-620, A0.21 400 μg/ml alone (Con), read-out: % inhibition of proliferation (minus signs)) was 5.2%. It also gave an inhibition at 400 µg/mL ([9]; 400 μg/ml) of 16.3 ± 2.7%.
For `CCOC(=O)C1CC(O)C[N+]1(C)C` (stereo not drawn) [Substance A1-01, 4-hydroxy-1,1-dimethylproline ethyl ester iodide], the IC50 ([1]; COLO 205, substances dissolved in water, read-out: IC50 Colo205) was over 400 µg/mL and the IC50 ([2]; BXPC-3, substances dissolved in water, read-out: IC50 BxPC3) was 70 µg/mL.
For `CCOC(=O)[C@@H]1CC(O)CN1C` (stereo partly drawn) [Substance A1.21, 4-hydroxy-1-methylproline ethyl ester], the inhibition at 200 µg/mL ([3]; MIA-PaCa2, 200 μg/ml, 4 days) was 7.4%, the inhibition at 400 µg/mL ([3]; MIA-PaCa2, 400 μg/ml, 4 days) was 38.8% and the inhibition at 200 µg/mL [1, 12] was 23.7%. The inhibition at 400 µg/mL [1, 13] was 32.7%, the inhibition at 200 µg/mL ([2]; BxPC3, 200 μg/ml, 4 days) was 25% and the inhibition at 400 µg/mL ([2]; BxPC3, 400 μg/ml, 4 days) was 13.4%. The inhibition at 200 µg/mL [4] was 15.6%, the inhibition at 400 µg/mL [4] was 53.5% and the inhibition at 200 µg/mL [5] was 22.2%. For the same compound, the inhibition at 400 µg/mL [5] was 80.1%, the inhibition at 200 µg/mL [6] was 7.3% and the inhibition at 400 µg/mL [6] was 0.5%. It also gave an inhibition at 400 µg/mL ([9]; 400 μg/ml) of 36.5 ± 11.4%.
